Laboratory results reported in US6713494B1, “Amorphous benzothiophenes, methods of preparation and methods of use” (Eli Lilly and Company, priority 1996, dated 2004).
Where a name gives a salt, the structure may show the parent alone. Read-outs that look alike come from different tables or passages of the source.

Legend:
[1] = long term studies; birefringence under polarized light microscope
Method: The presence of the amorphous form of a compound of formula I was determined by observing the material under a polarized light microscope, and determining if the material was birefringent. If no birefringence was observed, the material was considered to be amorphous.
The amorphous material was also made as a complex with povidone, with ratios of raloxifene HCl to PVP as follows: 9:1, 3:1, and 1:1 (w/w). Complexes with hydroxypropyl-β-cyclodextrin (HPBCD) were also prepared, with a ratio of raloxifene HCl to HPBCD of from 1:1 to 1:4 (w/w).

[2] = for Solubility: in water, room temperature, hydrochloride
[3] = Bioavailability study: plasma levels in dogs; assay type: in vivo; conditions: 4 mg/kg, PEG vehicle, plasma levels over a 10 hour period, amorphous vs crystalline form
Method: The extent and rate of absorption of the crystalline and amorphous forms of raloxifene HCl was determined. The two forms of the compound were formulated in a PEG vehicle as follows: […]
Six dogs were dosed as follows: three dogs received the amorphous form, while three dogs received the crystalline form, both at a dose of 4 mg/kg. Plasma levels of the two compound forms were then determined over a 10 hour period.

[4] = physchem; conditions: water, 37 °C, thermodynamic from solid, in water, in sonicator

Stability of the amorphous form [1] | Solubility of the amorphous form relative to the crystalline form ([2]; amorphous vs crystalline form) | Solubility [2] [mg/mL] | Bioavailability (plasma levels) [3] | Solubility [4] [mg/mL] | Compound
very stable | approximately 250 times | 42.2 | greater bioavailability | 120 | O=C(c1ccc(OCCN2CCCCC2)cc1)c1c(-c2ccc(O)cc2)sc2cc(O)ccc12 [amorphous, raloxifene hydrochloride]
– | – | 0.08 | – | – | O=C(c1ccc(OCCN2CCCCC2)cc1)c1c(-c2ccc(O)cc2)sc2cc(O)ccc12 [crystalline, raloxifene hydrochloride, reference compound]
